This is an account of results in patent EP4685136A1, “AMINO LIPID, AND LIPID NANOPARTICLES AND USE THEREOF” (Shenzhen MagicRNA Biotechnology Co., Ltd., priority 2023, dated 2024).

Molecules are shown by their SMILES.

The subject of one data set is C57BL/6 mice. The data set is described as follows: In vivo delivery of luciferase mRNA by intramuscular injection of LNPs (IVIS imaging). The settings on record: total fluorescence intensity, Luc mRNA LNP, 0.5 mg/kg mRNA, 12 hours. Here is the method: Preparation of lipid nanoparticles: same as Example 36.
(§1) Animal preparation: 6-week-old female C57BL/6 mice weighing about 20 g were selected and raised in an SPF-grade feeding room. Animal experiments were conducted strictly in accordance with the guidelines of the National Institutes of Health and animal ethics requirements.
In vivo delivery: Five C57BL/6 mice were randomly selected from each group and injected with lipid nanoparticle solution at a dose of 0.5 mg/kg mRNA by intramuscular injection. Twelve hours later, 200 µL of 10 mg/mL D-luciferin potassium salt was injected into the peritoneal cavity of each mouse. Five minutes later, the mice were placed under an in vivo imaging system (IVIS-200, Xenogen) to observe the total fluorescence intensity of each mouse and take photos for recording. The expression intensity of Luc mRNA delivered by intramuscular injection of LNPs composed of representative amino lipid compounds is shown in Table 3, with DLin-MC3 and SM-102 as controls. Table 3 Expression intensity of Luc mRNA delivered by intramuscular injection of LNPs composed of representative amino lipids

A short description of data set [1]: Particle size and PDI of Luc-mRNA lipid nanoparticles (Nano-ZS ZEN3600, Malvern). In kind it is physicochemical. The note with it: LNP of amino lipid:DSPC:cholesterol:DMG-PEG2000 47.5:10:41:1.5 with Luc-mRNA; lipid to mRNA mass ratio about 40:1. Here is the method: (§2) The amino lipid compound of the present invention (or DLin-MC3 or SM-102 (both purchased from AVT (Shanghai) Pharmaceutical Technology Co., Ltd.)), phospholipid lipid (DSPC), cholesterol, and PEGylated lipid (DMG-PEG2000) were mixed and dissolved in anhydrous ethanol at a molar ratio of 47.5:10:41:1.5. The resulting ethanol solution and citric acid buffer (50 mM, pH = 4.0) dissolved with Luc-mRNA (TriLink) were mixed in a microfluidic chip at a volume ratio of 1:3 using a microfluidic preparation system to prepare a crude solution of lipid nanoparticles, which was then dialyzed in 1X PBS at 4°C for 6 h using a dialysis cassette (Fisher, MWCO 20,000). The product was filtered through a 0.22 µm microporous filter membrane before use. The mass ratio of the amino lipid compound to luciferase mRNA (Luc mRNA) was about 40:1.
The particle size and PDI (polydispersity index) of the prepared lipid nanoparticles were measured by Nano-ZSZEN3600 (Malvern). 20 µL of lipid nanoparticle (LNP) solution was taken for particle size measurement, and cycled three times with each cycle for 30 s.

A short description of data set [2]: Encapsulation efficiency of Luc-mRNA lipid nanoparticles (Quant-iT RiboGreen RNA Kit). The class given is physicochemical. The note with it: LNP of amino lipid:DSPC:cholesterol:DMG-PEG2000 47.5:10:41:1.5 with Luc-mRNA; lipid to mRNA mass ratio about 40:1. Here is the method:
as §2
The encapsulation efficiency was determined according to the standard procedure of the Quant-iT RiboGreen RNA Kit. Table 1 Characterization data of LNPs prepared using representative amino lipid compounds

Another data set has as its system primary BMDC cells. Nature of the data set: Transfection of Luc mRNA lipid nanoparticles on primary BMDC cells (ONE-Glo luciferase readout). The settings on record: expression intensity of Luc mRNA on BMDCs; 10 µL LNP per well, 20,000 cells per well, 12 hours. In kind it is cell-based, C57BL/6 mice. Here is the method:
as §1
Cell acquisition: C57BL/6 mice were sacrificed by cervical dislocation and immersed in 75% alcohol for 5 minutes for disinfection. The thigh and tibia of the mice were dissected and the attached muscles were removed to expose the bone. The bone marrow in the tibia was blown out with a 1 mL syringe filled with PBS. The obtained bone marrow was dispersed by blowing and filtered through a 50 µm filter mesh to remove impurities. Red blood cell lysis solution (3-4 mL) was added to the obtained filtrate and allowed to stand for 5 minutes. Then, the supernatant was removed by centrifugation at 800 g for 5 minutes. The obtained cells were placed in 1640 culture medium (containing 10% fetal bovine serum, 20 ng/mL GMCSF, 10 ng/mL IL4) for being resuspended, and inoculated into 6-well plates at a density of 100,000 cells/mL of culture medium. The plates were placed in a cell culture incubator containing 5% CO2 at 37°C, and the medium was half-changed every 2 days. On the seventh day, the suspended cells and loosely adherent cells were collected and inoculated into 96-well all-white ELISA plates at a density of 20,000 cells per well, with a culture medium volume of 100 µL.
Cell transfection: the lipid nanoparticles encapsulating luciferase mRNA were added to a 96-well all-white ELISA plate with spreaded primary cells, and the volume of mRNA lipid nanoparticles added to each well was controlled to be 10 µL. Then, the plate was placed in an incubator with 5% CO2 concentration at 37°C for 12 hours.
Transfection efficiency detection: 20 µL of substrate ONE-Glo™ Luciferase was added to each well of a 96-well all-white ELISA plate, and the assay was performed using a multifunctional microplate reader (Biorek SynergyH1) after 1 min. The expression intensity of Luc mRNA transfected on BMDCs by lipid nanoparticles (LNPs) composed of representative amino lipid compounds is shown in Table 2, with DLin-MC3 and SM0102 as controls. Table 2 Expression intensity of transfection of representative amino lipid compounds on BMDCs

Another data set has as its system B16-OVA melanoma cells. The data set is described as follows: Tumor therapeutic effect of OVA mRNA LNP vaccine in B16-OVA melanoma-bearing mice. In kind it is in vivo, C57BL/6 mice. The settings on record: for mice achieved complete remission: two intramuscular injections 7 days apart of LNP containing 1 µg OVA-mRNA (Figure 3); for tumor growth rate: two intramuscular injections 7 days apart of LNP containing 1 µg OVA-mRNA, compared with MC3 group (Figure 2). Here is the method:
Preparation method: The amino lipid compound of the present invention was mixed with DSPC, cholesterol and DMG-PEG2000 at a molar ratio of 47.5:10:41:1.5 and dissolved in anhydrous ethanol. The obtained ethanol solution and citric acid buffer (50 mM, pH = 4.0) dissolved with OVA-mRNA were mixed in a microfluidic chip at a volume ratio of 1:3 using a microfluidic preparation system to prepare lipid nanoparticles, and then dialyzed in 1X PBS at 4°C for 6 h using a dialysis cassette (Fisher, MWCO 20,000) and filtered with a 0.22 µm microporous filter membrane before use. The mass ratio of the amino lipid compound to ovalbumin mRNA (OVA mRNA) was about 40: 1.
Animal preparation: Female C57BL/6 mice aged 5-6 weeks, weighing about 18-20 g were selected and kept in an SPF-grade feeding room. Animal experiments were conducted strictly in accordance with the guidelines of the National Institutes of Health and animal ethics requirements.
In vivo delivery: B16-OVA melanoma cells (1.5 × 10^5) were injected subcutaneously into the lateral thigh of mice. Vaccination was started when the tumor size reached 50 mm^3(approximately day 6 or 7 after tumor inoculation). Animals were immunized twice by intramuscular injection of LNP formulation containing 1 µg of OVA-mRNA, with an interval of the second injection from the first injection being 7 days. Tumor growth was measured three times per week using a digital caliper and calculated as 0.5 × length × width × width. Mice were euthanized when tumor volume reached 1500 mm^3.

`CCCCCCCCCCC(COC(=O)CCCCC)OC(=O)CCCCCN(CCCCCC(=O)OC(CCCCCCCCCC)COC(=O)CCCCC)[C@H]1CC[C@H](O)CC1` (relative stereo) [E12LA6B6O10]: in the data set on C57BL/6 mice, the Fluorescence intensity was determined as 1.6E+09. In addition, in data set [1], the “Average particle size (nm)” value amounted to 102 nm and the PDI was 0.10. The “Encapsulation efficiency (%)” value in data set [2] turned out to be 93.0%.
For `CCCCC/C=C\C/C=C\CCCCCCCCC(CCCCCCCC/C=C\C/C=C\CCCCC)OC(=O)CCCN(C)C` [DLin-MC3, reference compound], the Fluorescence intensity in the data set on C57BL/6 mice is reported as 7.6 E+08. In data set [1], the “Average particle size (nm)” value was determined as 72 nm and the PDI was found to be 0.12. Further, the “Encapsulation efficiency (%)” value in data set [2] was determined as 89.74%. Besides, the Luminescence intensity in the data set on primary BMDC cells stood at 4.1E+04.
`CCCCCCCC(=O)OCC(CCCCCC)OC(=O)CCCCCN(CCCO)CCCCCC(=O)OC(CCCCCC)COC(=O)CCCCCCC` (stereo not shown) [E8LA8B6O3]: the Fluorescence intensity with C57BL/6 mice worked out at 7.7E+08. Also, in data set [1], the “Average particle size (nm)” value came out at 84 nm and the PDI came to 0.07. In addition, the “Encapsulation efficiency (%)” value in data set [2] is given as 90.03%. Besides, in the data set with primary BMDC cells, the Luminescence intensity turned out to be 1.3E+05.
In the same order, the values of `CCCCCCCCCC(=O)OCC(CCCCCC)OC(=O)CCCCCN(CCCO)CCCCCC(=O)OC(CCCCCC)COC(=O)CCCCCCCCC` (stereo not shown) [E8LA10B6O3] are 1.6E+09, 73 nm, 0.09, 93.95% and 5.2E+04.
`CCCCCCCCC(COC(=O)CCCCC)OC(=O)CCCCCN(CCCO)CCCCCC(=O)OC(CCCCCCCC)COC(=O)CCCCC` (stereo not shown) [E10LA6B6O3] registered a Fluorescence intensity with C57BL/6 mice of 1.4E+09. In data set [1], the “Average particle size (nm)” value worked out at 92 nm and the PDI came to 0.07. Besides, in data set [2], the “Encapsulation efficiency (%)” value turned out to be 95.41%. In the data set with B16-OVA melanoma cells, the “mice achieved complete remission” value is reported as 80% and the tumor growth rate result was “significantly slower than that of the MC3 group”. In the data set with primary BMDC cells, the Luminescence intensity is reported as 1.5E+05.
For `CCCCCCCCC(COC(=O)CCCCCCC)OC(=O)CCCCCN(CCCO)CCCCCC(=O)OC(CCCCCCCC)COC(=O)CCCCCCC` (stereo not shown) [E10LA8B6O3], the Fluorescence intensity in the data set with C57BL/6 mice amounted to 1.8E+09. In addition, in data set [1], the “Average particle size (nm)” value stood at 71 nm and the PDI was found to be 0.11. Moreover, in data set [2], the “Encapsulation efficiency (%)” value was determined as 92.23%.
In turn, `CCCCCCCCCC(=O)OCC(CCCCCCCC)OC(=O)CCCCCN(CCCO)CCCCCC(=O)OC(CCCCCCCC)COC(=O)CCCCCCCCC` (stereo not shown) [E10LA10B6O3] registered a Fluorescence intensity in the data set with C57BL/6 mice of 1.2E+09. Moreover, in data set [1], the “Average particle size (nm)” value came out at 70 nm and the PDI was 0.06. Besides, the “Encapsulation efficiency (%)” value in data set [2] was determined as 95.90%. Further, the Luminescence intensity in the data set on primary BMDC cells came out at 6.9E+04.
`CCCCCCCCCCC(COC(=O)CCCCC)OC(=O)CCCCCN(CCCCCC(=O)OC(CCCCCCCCCC)COC(=O)CCCCC)CCCOC(=O)CCCCCCN(C)C` (stereo not shown) [E12LA6B6O3A6] gave a Fluorescence intensity with C57BL/6 mice of 1.5E+09. Besides, in data set [1], the “Average particle size (nm)” value was found to be 103 nm and the PDI came out at 0.07. Besides, the “Encapsulation efficiency (%)” value in data set [2] worked out at 98.5%.
In the data set on C57BL/6 mice, `CCCCCCCCCCC(COC(=O)CCCCC)OC(=O)CCCCCN(CCCO)CCCCCC(=O)OC(CCCCCCCCCC)COC(=O)CCCCC` (stereo not shown) [E12LA6B6O3] showed a Fluorescence intensity of 2.2E+09. For the same molecule, in data set [1], the “Average particle size (nm)” value stood at 75 nm and the PDI is listed as 0.08. The “Encapsulation efficiency (%)” value in data set [2] was 98.26%. In the data set on B16-OVA melanoma cells, the “mice achieved complete remission” value was determined as 100% and the tumor growth rate entry is listed as “significantly slower than that of the MC3 group”.
Molecule `CCCCCCCCCCC(COC(=O)CCCCCCC)OC(=O)CCCCCN(CCCO)CCCCCC(=O)OC(CCCCCCCCCC)COC(=O)CCCCCCC` (stereo not shown) [E12LA8B6O3] returned a Fluorescence intensity with C57BL/6 mice of 8.2E+08. In data set [1], the “Average particle size (nm)” value turned out to be 73 nm and the PDI was found to be 0.10. The “Encapsulation efficiency (%)” value in data set [2] was determined as 94.90%. Further, in the data set with primary BMDC cells, the Luminescence intensity came out at 7.6E+04.
For `CCCCCCCCCCC(CCOC(=O)CCCCC)OC(=O)CCCCCN(CCCO)CCCCCC(=O)OC(CCCCCCCCCC)CCOC(=O)CCCCC` (stereo not shown) [K3LA6B6O3], in that order: 2.0E+09, 129 nm, 0.08, 98.8% and 5.4E+05.
